Experimental findings from paper PMC8226839, “New Perspectives in the Antimicrobial Activity of the Amphibian Temporin B: Peptide Analogs Are Effective Inhibitors of Candida albicans Growth” (Journal of Fungi, 2021) are described below.

In series [1] the test system is C. albicans cells. Type of series: cell-based, Candida albicans. How it is done: (§1) At the time points 5 min, 6 h and 24 h, aliquots were taken and plated in appropriate dilutions onto PDA plates in duplicates to stimulate the growth of viable cells. The colony-forming units (CFU) were counted after incubation at 30 °C for 24 h. […] To determine the efficacy of the TB peptide analogs on sessile C. albicans cells, biofilm formation was induced by adding 100 μL of C. albicans (1 × 10^6 cells mL^−1) in 0.05 × PDB to each well of a 96-well, flat-bottom microtiter plate (Nunclon Delta, Thermo Fisher Scientific, Waltham, MA, USA) and incubating for 24 h at 30 °C. The formed biofilm was then evaluated microscopically for cell attachment and pseudo-hyphae formation before proceeding with peptide application. The serially diluted TB peptide analogs (in 0.05 × PDB) were added to the biofilm in 100 μL aliquots to reach a final volume of 200 μL per well. For the positive control, 10 µg mL^−1 Amphotericin B (Sigma-Aldrich, St. Louis, MO, USA) was used, while 0.05 × PDB was added to the growth control. After further incubation for 24 h at 30 °C, the biofilm was disrupted by vigorous pipetting, and 20 µL of the detached cells were mixed with 80 µL of 0.05 × PDB. […] The effectiveness of the TB peptide analogs to reduce biofilm formation was calculated by comparing the number of CFU at different peptide concentrations with that of the untreated growth control. […]

Series [2] can be described thus: in vitro. Type of series: cell-based. Conditions: human, 3D Phenion OS-REp reconstructed epidermis model.
Protocol: The TB peptide analogs were tested for their skin irritation potential in vitro using the three-dimensional (3D) Phenion® open-source reconstructed epidermis model (Henkel, Düsseldorf, Germany) with slight adaptation from Groeber et al. and Mewes et al. [22, 23] and the test guidelines 439 of the Organization for Economic Cooperation and Development (OECD) [24]. In brief, the epidermal tissue models were equilibrated in 6-well plates ([…] , Hamburg, Germany) with 1.5 mL of Phenion® OS_REp air-liquid interface (ALI) medium (Henkel, Düsseldorf, Germany) for 24 h at 37 °C, 5% (v/v) CO2. Then, the medium was replaced by fresh medium and 25 μL Dulbecco's phosphate-buffered saline (D-PBS) containing 50 μg of the peptide, respectively, was dispensed directly on top of the models and spread gently over the surface with sterile glass applicators. […] All samples and controls were prepared in triplicates. After incubation at 25 °C for 35 min, each model was thoroughly dipped six times in 1 L of D-PBS. […] From each tissue sample, 200 μL of the formazan extraction solution were transferred in duplicates to a 96-well microtiter plate and the optical density was measured in a multimode plate reader (FLUOstar Omega, BMG Labtech, Ortenberg, Germany) at a wavelength of 550 nm. The relative metabolic activity was calculated from two replicates per tissue and three tissues per assay.
The subject of series [3] is Candida albicans. Particulars: 24 h.
The subject of series [4] is Candida albicans 27700 (fluconazole-resistant clinical isolate). Conditions: 27700 (fluconazole-resistant clinical isolate, 24 h).
In series [5] the test system is Candida glabrata. Particulars: 24 h.
The test system of series [6] is Candida parapsilosis. Conditions: 24 h.
In series [7] the test system is Staphylococcus aureus. Conditions: 24 h.
Series [8] concerns sessile C. albicans cells (biofilm). Nature of the series: Survival of sessile cells of a 24 h old biofilm (CFU plating). It counts as cell-based, Candida albicans. Conditions: 10 µg mL^−1, 24 h exposure; untreated growth control 100%. How it is done:
as §1

The test system of series [9] is Candida albicans. Nature of the series: microbe, parasite or virus in culture.
Series [10] concerns IL-1α. Nature of the series: Release of proinflammatory cytokine IL-1α from Phenion OS-REp model (ELISA). Particulars: culture medium 24 h after 35 min exposure; 50 μg peptide per model (SDS 5% w/v).
In series [11] the test system is C. albicans. Put plainly: Broth microdilution, impact of protease inactivation conditions (growth %). It counts as cell-based, Candida albicans. Particulars: 0.125 µM protease alone + 100 °C, 15 min.

Where two headings read alike, the source gives them in different places. Square brackets hold non-standard residues; d marks the D form. Peptide text beside a SMILES is read from it.

In the case of `CC[C@H](C)[C@H](NC(=O)[C@@H]1CCCN1C(=O)[C@H](CC(C)C)NC(=O)[C@H](CC(C)C)NC(=O)[C@H](CCCCN)NC(=O)[C@@H](N)CCCCN)C(=O)N[C@H](C(=O)N[C@@H](CCCCN)C(=O)N[C@@H](CC(N)=O)C(=O)N[C@@H](CC(C)C)C(=O)N[C@@H](CC(C)C)C(=O)N[C@@H](CCCCN)C(=O)N[C@@H](CO)C(=O)N[C@@H](CC(C)C)C(=O)N[C@@H](CC(C)C)C(N)=O)C(C)C` [TB_KKG6K] (H-KKLLPIVKNLLKSLL-NH2), in [1] (6 h), the “killing (CFU)” value came out at 100%. Also, the viability at 35 min, 2000 µg/mL in [2] stood at 94.2 ± 2.9%. The 90% effect concentration (IC90) is 1800 nM in series [3]; 1800 nM in series [4]; 1800 nM in series [5]; 1800 nM in series [6]; 3600 nM in series [7].
In the case of `CC[C@H](C)[C@H](NC(=O)[C@@H]1CCCN1C(=O)[C@H](CC(C)C)NC(=O)[C@H](CC(C)C)NC(=O)[C@@H](CCCCN)NC(=O)[C@H](N)CCCCN)C(=O)N[C@H](C(=O)N[C@H](CCCCN)C(=O)N[C@@H](CC(N)=O)C(=O)N[C@@H](CC(C)C)C(=O)N[C@@H](CC(C)C)C(=O)N[C@H](CCCCN)C(=O)N[C@@H](CO)C(=O)N[C@@H](CC(C)C)C(=O)N[C@@H](CC(C)C)C(N)=O)C(C)C` [D-Lys_TB_KKG6K] (H-[dK][dK]LLPIV[dK]NLL[dK]SLL-NH2), the “killing (CFU)” value in [1] (24 h) was determined as 100%. The compound further showed a viability at 35 min, 2000 µg/mL in series [2] of 91.4 ± 2.9%. Moreover, the 90% effect concentration (IC90) in series [3] was 1800 nM; in series [4], 1800 nM; in series [5], 1800 nM; in [6], 1800 nM; in series [7] it was 14400 nM.
Consider `CC[C@H](C)[C@H](NC(=O)[C@@H]1CCCN1C(=O)[C@H](CC(C)C)NC(=O)[C@H](CC(C)C)NC(=O)[C@H](CCCCN)NC(=O)[C@H](CCCCN)NC(=O)[C@H](CCCCN)NC(=O)[C@@H](N)CCCCN)C(=O)N[C@H](C(=O)N[C@@H](CC(N)=O)C(=O)N[C@@H](CC(C)C)C(=O)N[C@@H](CC(C)C)C(=O)N[C@@H](CO)C(=O)N[C@@H](CC(C)C)C(=O)N[C@@H](CC(C)C)C(N)=O)C(C)C` [TB_KKG6K^scrambled] (H-KKKKLLPIVNLLSLL-NH2; N-terminus assumed), for which the concentration for an effect of 90% (IC90) in [3] was 1800 nM; in [7], 7200 nM.
For `C[C@@H]1[C@H](O)[C@@H](C)/C=C/C=C/C=C/C=C/C=C/C=C/C=C/[C@H](O[C@@H]2O[C@H](C)[C@@H](O)[C@H](N)[C@@H]2O)C[C@@H]2O[C@](O)(C[C@@H](O)C[C@@H](O)[C@H](O)CC[C@@H](O)C[C@@H](O)CC(=O)O[C@H]1C)C[C@H](O)[C@H]2C(=O)O` [Amphotericin B], the “CFU [%]” value in series [8] is given as 0 ± 0 %. Besides, the results for the IC90 in series [9] and in [9] (24 h) were 0.055 µg/mL and 60 nM, respectively.
Take `CCCCCCCCCCCCOS(=O)(=O)[O-].[Na+]` [5% SDS, sodium dodecyl sulfate]: the “IL-1α” value in series [10] was 199.2 ± 47.7 pg/mL.
For Chymotrypsin, in series [11], the “Growth [%]” value turned out to be 76.1 ± 6.9%.
